From ChEMBL document CHEMBL1201862, “PubChem BioAssay data set” (2004)
Active and inactive are the calls of the source.

Experiments:
[1] = luciferase reporter signal suppression in cells – H4 neuroglioma cells, luminescence, dose response (AID 1990); type: functional, cell-based
[2] = system: Streptococcus sp. 'group A'; test: Streptococcus pyogenes SK(-)GAS viability under kanamycin – luminescence, BacTiterGlo, confirmation, counter-screen for streptokinase expression inhibitor project, dose response (AID 1900); type: functional, organism-based
[3] = Luminescence Cell-Based Dose Response HTS to Identify Inhibitors of 5'UTR Stem-Loop Driven Prion Protein mRNA Translation in H4 Neuroglioblastoma Cells. [Related pubchem assays: 1827 (Project Summary), 1813 (Primary HTS)]; type: functional
[4] = alpha-synuclein stem-loop luciferase translation blockers – H4 neuroglioma cells, luminescence, confirmation (AID 1988); type: functional, cell-based
Streptococcus = test: GAS UMAA2166 growth inhibition – luminescence, BacTiterGlo, counter-screen for streptokinase expression inhibitor project, dose response (AID 1915); type: functional, organism-based;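 further: potency for reduction of bacterial viability or growth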
[5] = THP-1 cell cytotoxicity, dose response, cytotoxicity control for non-replicating M. tuberculosis project (AID 489025); type: functional
[6] = HepG2 cell cytotoxicity, dose response, cytotoxicity control for non-replicating M. tuberculosis project (AID 489018); type: functional; conditions: Mycobacterium tuberculosis
[7] = Vero E6 cell cytotoxicity, dose response, cytotoxicity control for non-replicating M. tuberculosis project, secondary assay (AID 492998); type: functional, VeroE6; conditions: Vero C1008
cells = type: functional
[8] = biological target: Heat shock protein HSP 90-alpha (Homo sapiens, UniProt P07900); type: functional, organism-based
Streptokinase A = biological target: T1, Streptokinase A (Streptococcus pyogenes serotype M1, UniProt P10520); test: viability-normalized secreted streptokinase activity reduction – plasminogen activation absorbance, OD405, dose response (AID 1914); type: functional, Streptococcus pyogenes M1 GAS;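 further: secreted streptokinase activity via plasminogen activation per viability signal from cell pellet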
T1 sequence (P10520 whole entry): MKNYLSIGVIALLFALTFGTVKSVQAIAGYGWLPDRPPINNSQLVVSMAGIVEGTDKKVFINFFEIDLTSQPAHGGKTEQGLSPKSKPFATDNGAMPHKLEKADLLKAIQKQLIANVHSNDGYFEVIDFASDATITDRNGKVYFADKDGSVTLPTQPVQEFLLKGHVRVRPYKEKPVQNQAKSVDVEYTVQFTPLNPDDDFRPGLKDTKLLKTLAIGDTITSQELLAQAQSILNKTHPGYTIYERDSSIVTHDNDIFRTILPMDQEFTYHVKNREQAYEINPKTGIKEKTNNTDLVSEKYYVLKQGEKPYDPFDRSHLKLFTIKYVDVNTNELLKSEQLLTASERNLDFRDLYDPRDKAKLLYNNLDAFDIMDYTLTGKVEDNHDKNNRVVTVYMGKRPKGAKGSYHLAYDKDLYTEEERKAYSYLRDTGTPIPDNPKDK

H9c2 = test: cells; type: functional, cell-based; conditions: Rattus norvegicus, H9c2, Myocardium;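 further: confirmatory concentration-response retest of ultra-high-throughput screening hits for modulation of myocardial damage; cell death induced by hydrogen peroxide oxidative stress; compound pretreatment for 60 min then peroxide exposure for 2 h; potency is for protecting the cells against peroxide damage rather than for killing them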
[9] = biological target: Eukaryotic translation initiation factor 4H (Homo sapiens, UniProt Q15056); test: inhibitors of translation initiation factor eIF4H – SAR follow-up (AID 435011); type: functional
[10] = biological target: Polyadenylate-binding protein 1 (Homo sapiens, UniProt P11940); test: PABP inhibition in translation initiation, SAR follow-up (AID 435018); type: functional
Polyadenylate-binding protein 1, sequence (P11940 whole entry, the tested form may be a part): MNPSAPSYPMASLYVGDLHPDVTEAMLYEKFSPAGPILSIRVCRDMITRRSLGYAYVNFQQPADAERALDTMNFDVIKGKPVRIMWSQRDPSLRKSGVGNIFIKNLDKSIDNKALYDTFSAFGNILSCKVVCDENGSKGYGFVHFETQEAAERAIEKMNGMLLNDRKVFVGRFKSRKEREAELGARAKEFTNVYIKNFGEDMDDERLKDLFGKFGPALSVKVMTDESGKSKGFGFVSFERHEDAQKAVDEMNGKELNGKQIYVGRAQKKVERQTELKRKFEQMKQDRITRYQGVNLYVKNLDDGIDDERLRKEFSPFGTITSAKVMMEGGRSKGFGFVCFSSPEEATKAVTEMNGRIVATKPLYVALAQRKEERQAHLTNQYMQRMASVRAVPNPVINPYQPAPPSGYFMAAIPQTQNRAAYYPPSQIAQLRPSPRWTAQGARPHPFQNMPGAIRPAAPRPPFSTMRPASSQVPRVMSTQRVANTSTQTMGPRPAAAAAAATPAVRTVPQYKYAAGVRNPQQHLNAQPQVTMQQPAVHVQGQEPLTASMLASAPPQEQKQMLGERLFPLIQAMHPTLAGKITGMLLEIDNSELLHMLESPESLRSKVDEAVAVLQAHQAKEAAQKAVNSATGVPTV

[11] = biological target: T2, RNA-binding protein pos-1 (Caenorhabditis elegans, UniProt G5EF15); test: disruptors of C. elegans POS-1 RNA interaction – biochemical, fluorescence polarization, dose response (AID 1964);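 further: purified POS-1 fused to maltose binding protein made in E. coli; potency of compounds blocking POS-1 binding to fluorescent RNA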
T2 sequence (G5EF15 whole entry): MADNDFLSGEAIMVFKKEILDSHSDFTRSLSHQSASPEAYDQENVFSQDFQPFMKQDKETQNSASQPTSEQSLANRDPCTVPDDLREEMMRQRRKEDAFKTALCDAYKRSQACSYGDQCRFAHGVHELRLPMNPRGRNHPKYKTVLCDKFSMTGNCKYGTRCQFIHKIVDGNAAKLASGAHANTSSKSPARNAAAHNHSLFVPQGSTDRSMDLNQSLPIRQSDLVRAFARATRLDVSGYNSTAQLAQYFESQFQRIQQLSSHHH

[12] = biological target: T3, Zinc finger protein mex-5 (Caenorhabditis elegans, UniProt Q9XUB2); test: potency of MEX-5 RNA-binding blockers – biochemical, C. elegans, fluorescence polarization, dose response (AID 1960)
T3 sequence (Q9XUB2 whole entry): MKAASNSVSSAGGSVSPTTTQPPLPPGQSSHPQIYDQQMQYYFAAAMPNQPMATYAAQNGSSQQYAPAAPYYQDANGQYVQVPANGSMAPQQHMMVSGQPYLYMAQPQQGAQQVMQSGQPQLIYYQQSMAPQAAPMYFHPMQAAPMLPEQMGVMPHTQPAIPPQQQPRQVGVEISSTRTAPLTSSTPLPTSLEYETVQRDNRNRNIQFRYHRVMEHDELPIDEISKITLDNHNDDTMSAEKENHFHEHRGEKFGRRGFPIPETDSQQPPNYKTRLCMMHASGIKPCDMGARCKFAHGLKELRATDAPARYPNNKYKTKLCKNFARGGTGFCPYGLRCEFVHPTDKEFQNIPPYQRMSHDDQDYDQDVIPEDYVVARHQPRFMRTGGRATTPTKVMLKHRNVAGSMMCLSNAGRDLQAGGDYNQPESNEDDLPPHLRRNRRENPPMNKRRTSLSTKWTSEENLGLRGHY

ORF 73 = biological target: T4, ORF 73 (Human herpesvirus 8, UniProt O40947); test: KSHV LANA DNA-binding disruption – biochemical, fluorescence polarization, cherry-picked samples, dose response (AID 504725); parameters: species or system Human gammaherpesvirus 8;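 further: fluorescence polarization of a labeled DNA duplex reporting LANA DNA binding; potency is for inhibitors that block LANA binding to the DNA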
T4 sequence (O40947 whole entry): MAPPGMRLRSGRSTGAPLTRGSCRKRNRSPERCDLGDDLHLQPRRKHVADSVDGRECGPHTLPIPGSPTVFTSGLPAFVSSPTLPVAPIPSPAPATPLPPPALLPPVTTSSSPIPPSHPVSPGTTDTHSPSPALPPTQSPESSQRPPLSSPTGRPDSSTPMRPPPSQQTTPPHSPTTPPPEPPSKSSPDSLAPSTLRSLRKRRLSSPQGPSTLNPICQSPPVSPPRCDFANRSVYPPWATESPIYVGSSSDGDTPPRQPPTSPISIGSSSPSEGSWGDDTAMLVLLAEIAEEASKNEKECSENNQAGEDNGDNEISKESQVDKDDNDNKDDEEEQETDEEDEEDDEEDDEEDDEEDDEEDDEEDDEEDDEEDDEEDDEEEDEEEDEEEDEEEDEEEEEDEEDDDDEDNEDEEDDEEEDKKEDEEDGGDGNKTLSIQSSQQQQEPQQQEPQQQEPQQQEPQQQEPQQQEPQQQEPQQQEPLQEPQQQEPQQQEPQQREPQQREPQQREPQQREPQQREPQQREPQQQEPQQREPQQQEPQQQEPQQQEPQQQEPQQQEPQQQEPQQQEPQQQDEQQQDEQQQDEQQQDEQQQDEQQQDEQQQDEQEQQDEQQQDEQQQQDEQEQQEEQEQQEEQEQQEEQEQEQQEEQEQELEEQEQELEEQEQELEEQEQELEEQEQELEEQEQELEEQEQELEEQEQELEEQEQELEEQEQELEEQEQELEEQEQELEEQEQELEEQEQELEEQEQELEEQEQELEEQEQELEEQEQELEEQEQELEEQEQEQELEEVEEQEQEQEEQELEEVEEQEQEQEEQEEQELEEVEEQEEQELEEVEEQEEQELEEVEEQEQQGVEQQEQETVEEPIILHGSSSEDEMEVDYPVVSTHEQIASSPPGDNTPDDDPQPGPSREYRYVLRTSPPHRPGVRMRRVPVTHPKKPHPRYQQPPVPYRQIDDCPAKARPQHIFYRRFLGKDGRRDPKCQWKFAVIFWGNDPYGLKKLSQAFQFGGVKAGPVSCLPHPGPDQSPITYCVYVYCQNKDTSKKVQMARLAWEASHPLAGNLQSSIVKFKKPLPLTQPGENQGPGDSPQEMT

Genome polyprotein = Genome polyprotein (dengue virus type 2, UniProt P29990); test: flavivirus cap methylation enzyme inhibition – biochemical, confirmation dose response, primary screen (AID 588689); type: functional
Genome polyprotein, sequence (P29990 2492-3391 limits assumed): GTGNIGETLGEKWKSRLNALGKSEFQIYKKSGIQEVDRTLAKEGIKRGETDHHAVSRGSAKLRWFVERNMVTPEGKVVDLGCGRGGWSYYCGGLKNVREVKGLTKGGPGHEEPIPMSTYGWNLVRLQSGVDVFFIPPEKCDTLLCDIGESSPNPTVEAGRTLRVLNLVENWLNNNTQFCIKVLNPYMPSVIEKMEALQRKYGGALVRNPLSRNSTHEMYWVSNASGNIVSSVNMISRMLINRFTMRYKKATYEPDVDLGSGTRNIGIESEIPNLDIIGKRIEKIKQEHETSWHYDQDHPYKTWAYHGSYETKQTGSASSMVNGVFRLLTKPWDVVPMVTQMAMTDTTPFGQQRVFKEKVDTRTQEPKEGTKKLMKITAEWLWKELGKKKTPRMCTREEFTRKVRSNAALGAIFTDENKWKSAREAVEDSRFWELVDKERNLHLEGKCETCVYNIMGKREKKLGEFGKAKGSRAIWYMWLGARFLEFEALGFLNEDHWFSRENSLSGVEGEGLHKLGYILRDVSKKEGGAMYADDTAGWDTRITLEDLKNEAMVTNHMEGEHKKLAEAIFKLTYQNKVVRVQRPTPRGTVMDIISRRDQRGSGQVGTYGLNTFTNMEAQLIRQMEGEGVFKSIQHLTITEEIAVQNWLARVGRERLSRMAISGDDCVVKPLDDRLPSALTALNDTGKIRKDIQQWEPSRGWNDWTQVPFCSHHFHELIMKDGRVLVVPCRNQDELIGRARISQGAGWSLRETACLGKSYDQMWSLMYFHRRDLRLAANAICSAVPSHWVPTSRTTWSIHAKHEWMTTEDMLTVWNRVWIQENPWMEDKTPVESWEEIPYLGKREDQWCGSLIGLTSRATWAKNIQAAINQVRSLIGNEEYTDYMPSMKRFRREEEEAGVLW

[13] = biological target: T5, Rac GTPase-activating protein 1 (Homo sapiens, UniProt Q9H0H5); test: blockers of MgcRacGAP-driven Rac1 GTP hydrolysis – biochemical, ADP Hunter fluorescence, primary and confirmatory, confirmation (AID 624330); type: functional
T5 sequence (Q9H0H5 whole entry): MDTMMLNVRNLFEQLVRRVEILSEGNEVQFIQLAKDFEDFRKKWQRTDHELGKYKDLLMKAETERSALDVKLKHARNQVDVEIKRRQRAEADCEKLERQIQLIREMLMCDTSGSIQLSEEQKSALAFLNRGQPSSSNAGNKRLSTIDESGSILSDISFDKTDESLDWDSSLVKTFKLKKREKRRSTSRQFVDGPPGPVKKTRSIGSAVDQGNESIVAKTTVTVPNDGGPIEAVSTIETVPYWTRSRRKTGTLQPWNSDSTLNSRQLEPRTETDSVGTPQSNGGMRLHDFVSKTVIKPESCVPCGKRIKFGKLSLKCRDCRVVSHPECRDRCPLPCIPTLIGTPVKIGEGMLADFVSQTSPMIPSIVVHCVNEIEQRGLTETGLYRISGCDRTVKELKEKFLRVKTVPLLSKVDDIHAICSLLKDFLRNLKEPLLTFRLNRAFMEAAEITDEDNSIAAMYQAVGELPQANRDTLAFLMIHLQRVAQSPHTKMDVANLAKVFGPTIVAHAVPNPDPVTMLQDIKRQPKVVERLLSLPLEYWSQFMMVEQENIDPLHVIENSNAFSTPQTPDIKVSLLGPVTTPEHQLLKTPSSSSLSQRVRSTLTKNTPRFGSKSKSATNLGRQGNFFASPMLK

Hexokinase = biological target: T6, Hexokinase (Trypanosoma brucei, UniProt Q38C41); test: Confirmation assay for inhibitors of Trypanosoma brucei hexokinase 1-Analogue-first series. [Related pubchem assays (depositor defined):AID1430, AID1632, AID2516, AID2560, AID2579, AID2600, AID449725, AID492951]; type: functional
T6 sequence (Q38C41 whole entry): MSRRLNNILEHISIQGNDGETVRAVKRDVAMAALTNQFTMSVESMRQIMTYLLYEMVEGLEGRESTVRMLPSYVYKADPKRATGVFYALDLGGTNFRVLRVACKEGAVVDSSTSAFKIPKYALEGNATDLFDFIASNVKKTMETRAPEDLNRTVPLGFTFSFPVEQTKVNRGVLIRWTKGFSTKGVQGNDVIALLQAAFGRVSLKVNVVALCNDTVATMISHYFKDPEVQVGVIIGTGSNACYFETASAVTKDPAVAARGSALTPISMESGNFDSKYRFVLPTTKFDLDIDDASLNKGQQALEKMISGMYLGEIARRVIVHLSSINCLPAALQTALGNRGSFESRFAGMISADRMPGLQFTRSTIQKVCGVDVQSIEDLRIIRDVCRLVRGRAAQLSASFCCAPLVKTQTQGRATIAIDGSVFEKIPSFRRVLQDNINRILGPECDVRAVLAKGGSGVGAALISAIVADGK

[14] = biological target: T7, Kappa-type opioid receptor (Homo sapiens, UniProt P41145); type: functional
T7 sequence (P41145 whole entry): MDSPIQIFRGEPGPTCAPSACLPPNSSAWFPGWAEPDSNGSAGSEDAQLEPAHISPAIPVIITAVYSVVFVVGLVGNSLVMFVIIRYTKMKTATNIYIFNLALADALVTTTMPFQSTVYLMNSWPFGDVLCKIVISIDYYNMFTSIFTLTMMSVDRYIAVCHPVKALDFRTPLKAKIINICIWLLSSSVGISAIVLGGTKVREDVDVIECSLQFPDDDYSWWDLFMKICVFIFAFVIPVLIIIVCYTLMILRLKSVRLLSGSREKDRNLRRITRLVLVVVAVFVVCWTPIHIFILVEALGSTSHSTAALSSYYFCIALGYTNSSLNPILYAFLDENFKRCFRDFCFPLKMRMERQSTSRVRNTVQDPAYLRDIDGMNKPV

Beta-galactosidase = Beta-galactosidase (Escherichia coli, UniProt Q8VNN2); type: functional
Beta-galactosidase, sequence (Q8VNN2 whole entry): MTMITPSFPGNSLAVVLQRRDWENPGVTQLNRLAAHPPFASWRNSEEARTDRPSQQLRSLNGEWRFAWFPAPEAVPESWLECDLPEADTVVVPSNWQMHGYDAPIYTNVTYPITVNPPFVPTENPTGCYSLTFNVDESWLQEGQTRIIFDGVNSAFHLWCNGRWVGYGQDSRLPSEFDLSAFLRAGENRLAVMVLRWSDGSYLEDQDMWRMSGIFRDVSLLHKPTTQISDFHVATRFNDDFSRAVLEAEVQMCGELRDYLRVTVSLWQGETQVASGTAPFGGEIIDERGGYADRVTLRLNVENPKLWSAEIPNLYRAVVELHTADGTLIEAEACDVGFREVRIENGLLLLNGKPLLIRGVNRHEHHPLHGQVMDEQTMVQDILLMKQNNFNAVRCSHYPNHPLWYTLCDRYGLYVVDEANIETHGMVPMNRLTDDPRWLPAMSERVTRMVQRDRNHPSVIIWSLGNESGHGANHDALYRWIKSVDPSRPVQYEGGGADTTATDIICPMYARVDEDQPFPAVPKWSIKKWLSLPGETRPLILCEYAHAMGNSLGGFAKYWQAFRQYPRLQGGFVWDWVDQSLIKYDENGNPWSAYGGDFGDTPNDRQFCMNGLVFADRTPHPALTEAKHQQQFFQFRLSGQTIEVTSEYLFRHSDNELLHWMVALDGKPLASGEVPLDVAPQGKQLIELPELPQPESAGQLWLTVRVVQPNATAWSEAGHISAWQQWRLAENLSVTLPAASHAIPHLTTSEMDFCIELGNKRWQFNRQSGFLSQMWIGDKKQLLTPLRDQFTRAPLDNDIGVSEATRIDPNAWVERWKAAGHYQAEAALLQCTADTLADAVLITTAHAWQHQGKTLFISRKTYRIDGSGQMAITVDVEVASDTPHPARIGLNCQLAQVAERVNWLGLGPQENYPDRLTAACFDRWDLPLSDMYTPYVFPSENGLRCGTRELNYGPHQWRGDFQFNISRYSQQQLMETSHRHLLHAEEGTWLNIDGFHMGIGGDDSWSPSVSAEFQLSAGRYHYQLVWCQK

[15] = biological target: T7, Kappa-type opioid receptor; type: functional; remark: listed apart in the source
[16] = biological target: T8, Microphthalmia-associated transcription factor (Homo sapiens, UniProt O75030); test: reducers of TRPM1 reporter luminescence, concentration series – cell-based, SK-MEL-5, cherry-picked, set 3, MITF inhibitor project, dose response (AID 493073); type: functional;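 further: SK-MEL-5 melanoma cells with luciferase driven by the MITF target TRPM1 promoter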
T8 sequence (O75030 whole entry): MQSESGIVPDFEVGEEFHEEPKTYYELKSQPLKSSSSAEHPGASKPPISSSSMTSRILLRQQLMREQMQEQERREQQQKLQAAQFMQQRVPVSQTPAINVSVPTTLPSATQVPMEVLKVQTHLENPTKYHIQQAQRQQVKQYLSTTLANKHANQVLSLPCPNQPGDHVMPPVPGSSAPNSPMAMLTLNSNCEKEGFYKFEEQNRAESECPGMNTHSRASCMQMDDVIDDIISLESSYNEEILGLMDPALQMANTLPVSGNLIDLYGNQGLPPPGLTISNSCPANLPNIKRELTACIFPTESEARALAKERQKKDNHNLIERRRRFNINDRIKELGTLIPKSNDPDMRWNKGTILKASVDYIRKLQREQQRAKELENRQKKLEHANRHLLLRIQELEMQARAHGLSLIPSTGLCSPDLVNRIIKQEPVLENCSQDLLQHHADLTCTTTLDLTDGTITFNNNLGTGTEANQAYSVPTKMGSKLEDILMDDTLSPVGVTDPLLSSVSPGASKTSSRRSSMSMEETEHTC

CC(C)Cn1c(=O)c(C(=O)Nc2ccncc2)c(O)c2ccccc21
EC50 [1]: > 120 µM (not active) | EC50 [2]: 5.54 µM (active) | EC50 [3]: > 120 µM (not active) | EC50 [4]: 10.9 µM (active) | EC50 (Streptococcus): 7.31 µM (active) | CC50 [5]: 12.4 µM (active) | CC50 [6]: 19.1 µM (active) | CC50 [7]: 16.5 µM (active) | IC50 (cells): 16.9 µM (active) | AC50 [8]: 6.7 µM (active)

O=C(Nc1nnc(-c2ccco2)o1)c1ccc([N+](=O)[O-])s1
CC50 [5]: 17.4 µM (active) | CC50 [6]: > 20 µM (active) | CC50 [7]: 11.6 µM (active) | IC50 (cells): 9.81 µM (active)

CCCn1c(NC(=O)c2ccccc2)nc2ccccc21
EC50 [2]: 2.56 µM (active) | EC50 (Streptokinase A): > 150 µM (not active) | EC50 (Streptococcus): > 150 µM (not active) | CC50 [5]: 35.9 µM (active) | CC50 [6]: > 20 µM (active) | CC50 [7]: > 20 µM (active) | IC50 (cells): 1.75 µM (active) | IC50 (H9c2): > 79 µM (inactive)

O=C(COc1ccc(C=NNC(=O)c2ccc(O)cc2)cc1)Nc1ccc([N+](=O)[O-])cc1
IC50 [9]: 5.8 µM (active) | IC50 [10]: > 100 µM (inactive)

O=C(O)c1ccc2c(c1)C(=O)/C(=C\c1ccco1)C2=O
EC50 [11]: > 300 µM (not active) | EC50 [12]: 32.1 µM (active) | AC50 (ORF 73): 133 µM (active) | IC50 (Genome polyprotein): 12.3 µM (active) | IC50 [13]: 89.2 µM (active)

COc1cccc(NC(=O)Cn2sc3ccccc3c2=O)c1
IC50 (Hexokinase): 5.03 µM (active)

O=C(Nc1cc(Cl)ccc1C(=O)O)c1ccc(Cl)cc1
IC50 (Hexokinase): > 25 µM (inactive)

COc1ccc(Cl)cc1NC(=O)COC(=O)c1ccc(NC(N)=O)cc1
IC50 [9]: > 100 µM (inactive) | IC50 [10]: > 100 µM (inactive)

CC1=C/C(=N\NC(=S)Nc2cccnc2)CC(C)(C)C1
IC50 [14]: 9.46 µM (active) | EC50 (Beta-galactosidase): > 31.5 µM (inactive) | IC50 [15]: > 32 µM | AC50 [16]: 11 µM (active)
